Values joined by “and” are separate entries in the source; they are usually repeats but may differ in a detail not shown here. Equal entries are not always repeated. Results filed as inconclusive are left out. Starred links: 1 amine or outer side, 2 acyl side, 3 side chain; linkers in the order of their positions; H or OH if unused. Positions of bridges follow the written chain, without caps; N, C: chain ends. Non-standard residues stand in square brackets, D forms with d. Residues, ends and D or L forms follow the SMILES beside them. Chains are numbered I, II in the order given. *: point of attachment. Actinocin(9to1) = Cc1c2oc3c(C)ccc(C(=O)[*:1])c3nc-2c(C(=O)[*:2])c(N)c1=O; X2 = CCC(=O)CC1CC(C)CC(C(=O)[*:2])N1[*:1]; NMeV = CN[CH](C(=O)O)C(C)C; X1 = CCCCCCCCC(C)C(=O)*; Aib = CC(C)(N)C(=O)O; X3 = CC(CN(C)CCO)N*; Sar = CNCC(=O)O
System: CD8F1 mice, subcutaneous mammary adenocarcinoma, T/C%
Assay: NCI In Vivo Anticancer Drug Screen. Data for tumor model Mammary Adenocarcinoma CD8F1 (subcutaneous) in CD8F1
Conditions: higher = larger tumour
Summary of the method: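 Antitumor activity is assessed in transplantable-tumor mice by comparing the treated group with a vehicle-treated control group. Survival or tumor size serves as the measure, reported as T divided by C.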

[1] = endpoint: median tumor weight (est.), dose: 25.0 mg/kg/injection, schedule: Q07DX005 (ip), vehicle: saline
[2] = endpoint: median tumor weight (est.), dose: 50.0 mg/kg/injection, schedule: Q07DX005 (ip), vehicle: saline
[3] = endpoint: median tumor weight (est.), dose: 12.5 mg/kg/injection, schedule: Q07DX005 (ip), vehicle: Klucel (hydroxypropylcellulose) (HPC)
[4] = endpoint: median tumor weight (est.), dose: 25.0 mg/kg/injection, schedule: Q07DX005 (ip), vehicle: Klucel (hydroxypropylcellulose) (HPC)
[5] = endpoint: median tumor weight (est.), dose: 100.0 mg/kg/injection, schedule: Q07DX005 (ip), vehicle: Klucel (hydroxypropylcellulose) (HPC)
[6] = endpoint: median tumor weight (est.), dose: 200.0 mg/kg/injection, schedule: Q07DX005 (ip), vehicle: Klucel (hydroxypropylcellulose) (HPC)
[7] = endpoint: median tumor weight (est.), dose: 400.0 mg/kg/injection, schedule: Q07DX005 (ip), vehicle: Klucel (hydroxypropylcellulose) (HPC)
[8] = endpoint: median tumor weight (est.), dose: 50.0 mg/kg/injection, schedule: Q07DX005 (ip), vehicle: Klucel (hydroxypropylcellulose) (HPC)

## O=C1C=CN(C2OC(CO)C(O)C2O)C(=O)C1 (configuration not stated)
endpoint: median tumor weight (est.), dose: 12.5 mg/kg/injection, schedule: Q07DX005 (ip), vehicle: saline
  T/C: 97 % of control
[1]
  T/C: 99 % of control
[2]
  T/C: 101 % of control
endpoint: median tumor weight (est.), dose: 100.0 mg/kg/injection, schedule: Q07DX005 (ip), vehicle: saline
  T/C: 120 % of control
endpoint: median tumor weight (est.), dose: 200.0 mg/kg/injection, schedule: Q07DX005 (ip), vehicle: saline
  T/C: 78 % of control

## O=C1N[C@H]2[C@H](CS[C@H]2CCCCC(=O)N(CCP(c2ccccc2)c2ccccc2)CCP(c2ccccc2)c2ccccc2)N1
endpoint: median tumor weight change, dose: 125.0 mg/kg/injection, schedule: Q01DX001 (ip), vehicle: Klucel (hydroxypropylcellulose) (HPC)
  T/C: 97 % of control
endpoint: median tumor weight change, dose: 250.0 mg/kg/injection, schedule: Q01DX001 (ip), vehicle: Klucel (hydroxypropylcellulose) (HPC)
  T/C: 70 % of control
endpoint: median tumor weight change, dose: 500.0 mg/kg/injection, schedule: Q01DX001 (ip), vehicle: Klucel (hydroxypropylcellulose) (HPC)
  T/C: 85 % of control
endpoint: median tumor weight change, dose: 1000.0 mg/kg/injection, schedule: Q01DX001 (ip), vehicle: Klucel (hydroxypropylcellulose) (HPC)
  T/C: 55 % of control
endpoint: median tumor weight change, dose: 2000.0 mg/kg/injection, schedule: Q01DX001 (ip), vehicle: Klucel (hydroxypropylcellulose) (HPC)
  T/C: 56 % of control

## OCCOCC(F)(F)F
endpoint: median tumor weight (est.), dose: 12.5 mg/kg/injection, schedule: Q07DX005 (ip), vehicle: saline with Tween-80
  T/C: 57 % of control
endpoint: median tumor weight (est.), dose: 25.0 mg/kg/injection, schedule: Q07DX005 (ip), vehicle: saline with Tween-80
  T/C: 102 % of control and 106 % of control
endpoint: median tumor weight (est.), dose: 50.0 mg/kg/injection, schedule: Q07DX005 (ip), vehicle: saline with Tween-80
  T/C: 97 % of control and 104 % of control
endpoint: median tumor weight (est.), dose: 200.0 mg/kg/injection, schedule: Q07DX005 (ip), vehicle: saline with Tween-80
  T/C: 67 % of control
endpoint: median tumor weight (est.), dose: 800.0 mg/kg/injection, schedule: Q07DX005 (ip), vehicle: saline with Tween-80
  T/C: 70 % of control

## O=C1CC2(C(=O)N1CN1CCCCC1)c1ccccc1-c1ccccc12
[3]
  T/C: 99 % of control
[4]
  T/C: 71 % of control
[5]
  T/C: 85 % of control
[6]
  T/C: 62 % of control
[7]
  T/C: 21 % of control

## CC1CCC(NC(=O)N(CCCl)N=O)CC1 (configuration not stated)
endpoint: mean tumor weight, dose: 6.25 mg/kg/injection, schedule: Q01DX009 (ip), vehicle: saline + alcohol
  T/C: 108 % of control
endpoint: mean tumor weight, dose: 6.25 mg/kg/injection, schedule: Q01DX009 (ip), vehicle: saline
  T/C: 214 % of control
endpoint: mean tumor weight, dose: 12.5 mg/kg/injection, schedule: Q01DX009 (ip), vehicle: saline + alcohol
  T/C: 27 % of control
endpoint: mean tumor weight, dose: 12.5 mg/kg/injection, schedule: Q01DX009 (ip), vehicle: saline
  T/C: 50 % of control
endpoint: mean tumor weight, dose: 12.5 mg/kg/injection, schedule: Q07DX006 (ip), vehicle: saline + alcohol
  T/C: 63 % of control
endpoint: mean tumor weight, dose: 12.5 mg/kg/injection, schedule: Q07DX006 (ip), vehicle: saline
  T/C: 24 % of control
endpoint: mean tumor weight, dose: 12.5 mg/kg/injection, schedule: Q07DX007 (ip), vehicle: saline + alcohol
  T/C: 124 % of control
endpoint: mean tumor weight, dose: 25.0 mg/kg/injection, schedule: Q01DX009 (ip), vehicle: saline
  T/C: 47 % of control
endpoint: mean tumor weight, dose: 25.0 mg/kg/injection, schedule: Q07DX006 (ip), vehicle: saline + alcohol
  T/C: 28 % of control
endpoint: mean tumor weight, dose: 25.0 mg/kg/injection, schedule: Q07DX006 (ip), vehicle: saline
  T/C: 48 % of control
endpoint: mean tumor weight, dose: 25.0 mg/kg/injection, schedule: Q07DX007 (ip), vehicle: saline + alcohol
  T/C: 100 % of control
endpoint: mean tumor weight, dose: 50.0 mg/kg/injection, schedule: Q07DX006 (ip), vehicle: saline + alcohol
  T/C: 4 % of control
endpoint: mean tumor weight, dose: 50.0 mg/kg/injection, schedule: Q07DX006 (ip), vehicle: saline
  T/C: 7 % of control
endpoint: mean tumor weight, dose: 50.0 mg/kg/injection, schedule: Q07DX007 (ip), vehicle: saline + alcohol
  T/C: 66 % of control
endpoint: median tumor weight (est.), dose: 2.0 mg/kg/injection, schedule: Q07DX005 (ip), vehicle: Klucel (hydroxypropylcellulose) (HPC)
  T/C: 98 % of control
endpoint: median tumor weight (est.), dose: 4.0 mg/kg/injection, schedule: Q07DX005 (ip), vehicle: Klucel (hydroxypropylcellulose) (HPC)
  T/C: 50 % of control
endpoint: median tumor weight (est.), dose: 8.0 mg/kg/injection, schedule: Q07DX005 (ip), vehicle: Klucel (hydroxypropylcellulose) (HPC)
  T/C: 38 % of control
endpoint: median tumor weight (est.), dose: 16.0 mg/kg/injection, schedule: Q07DX005 (ip), vehicle: Klucel (hydroxypropylcellulose) (HPC)
  T/C: 24 % of control
endpoint: median tumor weight change, dose: 8.0 mg/kg/injection, schedule: Q01DX001 (ip), vehicle: Klucel (hydroxypropylcellulose) (HPC)
  T/C: 98 % of control
endpoint: median tumor weight change, dose: 13.8 mg/kg/injection, schedule: Q01DX001 (ip), vehicle: Klucel (hydroxypropylcellulose) (HPC)
  T/C: 68 % of control
endpoint: median tumor weight change, dose: 16.0 mg/kg/injection, schedule: Q01DX001 (ip), vehicle: Klucel (hydroxypropylcellulose) (HPC)
  T/C: 78 % of control
endpoint: median tumor weight change, dose: 23.0 mg/kg/injection, schedule: Q01DX001 (ip), vehicle: Klucel (hydroxypropylcellulose) (HPC)
  T/C: 23 % of control
endpoint: median tumor weight change, dose: 32.0 mg/kg/injection, schedule: Q01DX001 (ip), vehicle: Klucel (hydroxypropylcellulose) (HPC)
  T/C: 42 % of control
endpoint: median tumor weight change, dose: 38.4 mg/kg/injection, schedule: Q01DX001 (ip), vehicle: Klucel (hydroxypropylcellulose) (HPC)
  T/C: -12 % of control
endpoint: median tumor weight change, dose: 64.0 mg/kg/injection, schedule: Q01DX001 (ip), vehicle: Klucel (hydroxypropylcellulose) (HPC)
  T/C: -13 % of control and -32 % of control

## Cc1c2oc3c(C)ccc(C(=O)NC4C(=O)NC(C(C)C)C(=O)N5CCCC5C(=O)N(C)CC(=O)N(C)C(C(C)C)C(=O)OC4C)c3nc-2c(C(=O)NC2C(=O)NC(C(C)C)C(=O)N3CCCC3C(=O)N(C)CC(=O)N(C)C(C(C)C)C(=O)OC2C)c(N)c1=O (configuration not stated) (I: TVP[Sar][NMeV] / II: TVP[Sar][NMeV]; ester I:1-I:C, II:1-II:C; linker I:N-II:N via Actinocin(9to1); configuration not given here)
endpoint: median tumor weight (est.), dose: 0.5 mg/kg/injection, schedule: Q07DX005 (ip), vehicle: saline
  T/C: 26 % of control and 30 % of control
endpoint: median tumor weight (est.), dose: 1.0 mg/kg/injection, schedule: Q07DX005 (ip), vehicle: saline
  T/C: 3 % of control and 20 % of control

## CCCCCCCCC(C)C(=O)N1CCCC1C(=O)N1C(CC(=O)CC)CC(C)CC1C(=O)NC(C)C(=O)NC(C)(C)C(=O)NC(C)(C)C(=O)NC(C(=O)NC(C)C(=O)NC(C)(C)C(=O)NC(C)(C)C(=O)NC(C)CN(C)CCO)C(C)CC (configuration not stated) (X1-P[X2]A[Aib][Aib]IA[Aib][Aib]-X3; configuration not given here)
endpoint: median tumor weight change, dose: 3.0 mg/kg/injection, schedule: Q01DX001 (ip), vehicle: saline with Tween-80
  T/C: 100 % of control
endpoint: median tumor weight change, dose: 3.12 mg/kg/injection, schedule: Q01DX001 (ip), vehicle: other
  T/C: 123 % of control

## O=c1n(CC2CO2)c(=O)n(CC2CO2)n1CC1CO1 (configuration not stated)
endpoint: median tumor weight change, dose: 62.5 mg/kg/injection, schedule: Q01DX001 (ip), vehicle: saline
  T/C: 29 % of control

## O=S(=O)(SC(S(=O)(=O)c1ccccc1)S(=O)(=O)c1ccccc1)c1ccccc1
[4]
  T/C: 55 % of control
[8]
  T/C: 90 % of control
[6]
  T/C: 112 % of control
[7]
  T/C: 70 % of control

## CC[C@@]1(O)C[C@H](OC2CC(N(C)C)C(OC3CC(O)C(OC4CCC(=O)C(C)O4)C(C)O3)C(C)O2)c2c(cc3c(c2O)C(=O)c2c(O)cccc2C3=O)[C@H]1C(=O)OC (some centres not stated)
endpoint: mean tumor weight, dose: 0.75 mg/kg/injection, schedule: Q01DX009 (ip), vehicle: saline
  T/C: 108 % of control
endpoint: mean tumor weight, dose: 1.5 mg/kg/injection, schedule: Q01DX009 (ip), vehicle: saline
  T/C: 75 % of control
endpoint: mean tumor weight, dose: 3.0 mg/kg/injection, schedule: Q01DX009 (ip), vehicle: saline
  T/C: 35 % of control
endpoint: mean tumor weight, dose: 6.0 mg/kg/injection, schedule: Q01DX009 (ip), vehicle: saline
  T/C: 5 % of control
endpoint: median tumor weight (est.), dose: 2.97 mg/kg/injection, schedule: Q07DX005 (ip), vehicle: water
  T/C: 122 % of control
endpoint: median tumor weight (est.), dose: 4.45 mg/kg/injection, schedule: Q07DX005 (ip), vehicle: water
  T/C: 87 % of control
endpoint: median tumor weight (est.), dose: 6.67 mg/kg/injection, schedule: Q07DX005 (ip), vehicle: water
  T/C: 92 % of control
endpoint: median tumor weight (est.), dose: 10.0 mg/kg/injection, schedule: Q07DX005 (ip), vehicle: water
  T/C: 61 % of control
endpoint: median tumor weight (est.), dose: 15.0 mg/kg/injection, schedule: Q07DX005 (ip), vehicle: water
  T/C: 11 % of control

## CCCCc1ccc(-n2c(C)c(COC(=O)NC)c(COC(=O)NC)c2C)cc1
endpoint: median tumor weight (est.), dose: 6.25 mg/kg/injection, schedule: Q07DX005 (ip), vehicle: Klucel (hydroxypropylcellulose) (HPC)
  T/C: 118 % of control
[3]
  T/C: 63 % of control
[4]
  T/C: 111 % of control
[8]
  T/C: 56 % of control
[5]
  T/C: 40 % of control

## Cc1cn(C2CC(O)C(CO)O2)c(=O)[nH]c1=O (configuration not stated)
[1]
  T/C: 88 % of control
[2]
  T/C: 107 % of control

## O/N=C/c1ccccc1O.O/N=C/c1ccccc1O.[Cu]
endpoint: median tumor weight change, dose: 31.25 mg/kg/injection, schedule: Q01DX001 (ip), vehicle: saline with Tween-80
  T/C: 90 % of control
endpoint: median tumor weight change, dose: 62.5 mg/kg/injection, schedule: Q01DX001 (ip), vehicle: saline with Tween-80
  T/C: 59 % of control

From PubChem BioAssay AID220 (DTP/NCI, 2004)
